What was measured:
guinea pig = assay: Antitussive effect, citric acid aerosol-induced cough; format: in vivo
Experimental: The method used was the method by M. H. Boskabady et al. (journal of Entnopharmacology 97, 2005, 79-82) with a bit of modifications.
A Hartley male guinea pig (450˜500 g, SLC, Japan) was orally administered with a drug. 1 hr after the administration, the guinea pig was placed in Double Chamber Plethysmograph Box (HSE, Germany) installed with plethysmometer and stabilized by allowing a 5 min of time for adaptation. After the stabilization, 0.6M citric acid was sprayed to the guinea pig for 7 min in the form of aerosol by preparing a compressed air under high pressure. The guinea pig was observed continuously by a trained observer and the number of coughs induced by the above spray of citric acid aerosol was measured by using a microphone and a speaker. The coughs were distinguished from a normal sneeze due to its particular signs such as a peculiar and high sound with its mouth open, movement of abdomen, and an instant change in air flow.

[1] = system: Phosphodiesterase 4 (PDE4); assay: Inhibition of phosphodiesterase 4 (PDE4) activity, human U937 cells, [3H]cAMP; format: biochemical; settings: positive control
Experimental: Human U937 cells were stabilized in the mixed solution comprising 50 mM Tris-HCl and 5 mM MgCl2 (pH 7.5) at 25° C. Sophorae Radix extract and 1.01 μM of ([3H]cAMP+cAMP) as a base material were combined together and allowed to react for 20 min to produce adenosine.

sensitized guinea pig = assay: Inhibition of airway contraction (in vivo), OVA aerosol bronchospasm, airway resistance by plethysmograph
Experimental: To evaluate the inhibitory effect of Sophorae Radix extract prepared in Preparation Examples 1-3 against airway contraction, experiments were performed as described below by exposing antigens to a sensitized guinea pig and the results are shown in Table 2.
A Hartely male guinea pig(400-450 g, SLC, Japan) was sensitized by intravenously injecting 1.5 mL/kg of anti-ovalbumin anti-serum. 48 hrs after the sensitization, the guinea pig was administered with a drug orally. In 30 min, the guinea pig was pretreated by injecting 10 mg/kg of pyrilamine maleate, 10 mg/kg of indomethacin, and 0.1 mg/kg of propranolol subcutaneously, respectively. Then, the guinea pig was placed in Double Chamber Plethysmograph Box(HSE, Germany) installed with plethysmometer for measuring various respiratory indices and measured basic airway resistance values. 30 min after the pretreatment, 1% OVA was nebulized for 2 min in the form of aerosol by preparing a compressed air under high pressure. Airway resistance was measured for 30 min as an indicator of bronchospasm.

COc1ccc2c(c1)[C@]13CCCC[C@@H]1[C@H](C2)N(C)CC3 [Dextromethorphan]
Cough (guinea pig; 50 mg/kg oral): 11.1 ± 2.5 (N = 7)
Inhibition (%) of cough (guinea pig; 50 mg/kg oral): 9%
Cough (guinea pig; 100 mg/kg oral): 4.5 ± 2.6 (N = 10)
Inhibition (%) of cough (guinea pig; 100 mg/kg oral): 63%

CC(C)Cn1c(=O)n(C)c(=O)c2[nH]cnc21 [IBMX, 3-isobutyl-1-methylxanthine]
IC50 [1]: 20.7 µM

CC(C)(O)c1ccccc1CC[C@@H](SCC1(CC(=O)O)CC1)c1cccc(/C=C/c2ccc3ccc(Cl)cc3n2)c1 [Montelukast]
Inhibition Rate of Bronchospasm (%) (sensitized guinea pig; 10 mg/kg oral): 45%
Inhibition Rate of Bronchospasm (%) (sensitized guinea pig; 40 mg/kg oral): 75%
Cough (guinea pig; 10 mg/kg oral): 11.1 ± 2.9 (N = 9)
Inhibition (%) of cough (guinea pig; 10 mg/kg oral): 10%
Cough (guinea pig; 40 mg/kg oral): 11.4 ± 4.3 (N = 7)
Inhibition (%) of cough (guinea pig; 40 mg/kg oral): 7%
